Source: patent US20060211081A1, “Sec14 as an antifungal target” (priority 2002, published 2006)

System: C. albicans conditional mutants (SEC14 gene under tetracycline repressible promoter)
Assay: Murine model of systemic infection with C. albicans conditional mutants, kidney burdens
Assay type: in vivo, BALB/c mice
Details: +DOX group (2 mg/ml in 5% sucrose drinking water), at the start of the study and at day 28; 1×10^6 CFU/mouse i.v.
Protocol: To further validate the essential nature of the SEC14 gene, the conditional mutants of C. albicans strains (as described in Example 4, section 4.1), wherein the SEC14 gene is under the control of a tetracycline repressible promoter, may be tested to determine whether they are attenuated in an immuno-competent murine model of infection (Ghannoum, et al, 1995) as follows:
Initially the organisms were grown in the absence of DOX, since under these conditions they would express the SEC14 gene. These organisms were then used to inoculate two groups of 12 of mice. One group wss treated with DOX, in which expression of the SEC14 gene was repressed, and the second group of mice was treated with water (control) wherein the gene continued to be expressed. The mice used were single sex BALB/c mice, Harlan, 4 weeks old and weighing between 19-22 g.
Infective doses of C. albicans were injected into the tail vein. The inocula were from saline-washed fresh stationary phase cultures grown in NGY medium [0.1% neopeptone, 0.4% glucose, 0.1% yeast extract] for 18-24 h at 30° C. […]
Animals were fed food and water ad libitum throughout the course of experiment. […] Differences between the effects of C. albicans with the SEC14 gene active (−DOX) or repressed (+DOX) in vivo were monitored by mouse survival, kidney burdens of viable fungi, and changes in body weight relative to baseline. […]

## C[C@H]1c2cccc(O)c2C(=O)C2=C(O)[C@]3(O)C(=O)C(C(N)=O)=C(O)[C@@H](N(C)C)[C@@H]3[C@@H](O)[C@@H]21 [doxycycline]
  Kidney counts (colony forming unit counts per gram of kidney tissue): < 200 cfu/g
